The test system of assay [1] is Haemonchus contortus L3. Briefly: microbe, parasite or virus in culture. It is filed as cell-based. To be noted: Haemonchus contortus, 96 h, read-out: HcL3 Minimal Effective Concentration (MEC).
Assay [2] deals with D. immitis microfilariae. Briefly: Dirofilaria immitis, microfilariae (DiMF) in vitro motility assay. To be noted: Dirofilaria immitis, 72 h, read-out: DiMF minimally effective dose (MEC). It is filed as cell-based.
Assay [3] relates to Trichostrongylus colubriformis. Briefly: Jird efficacy model. To be noted: Trichostrongylus colubriformis, sc, 96 h, read-out: Jird % (percentage efficacy). It is filed as in vivo.

SMILES strings stand for the structures.

Take `N#Cc1ccc2c3c(n(C(=O)NCc4ccnc(Cl)c4)c2c1)CCN(C/C=C/c1ccc(Cl)cc1F)C3` [Example 7, (E)-2-(3-(4-chloro-2-fluorophenyl)allyl)-N-((2-chloropyridin-4-yl)methyl)-7-cyano-1,2,3,4-tetrahydro-5H-pyrido[4,3-b]indole-5-carboxamide]: the minimal effective concentration worked out at 2.4 µM in assay [1] and 10 µM in assay [2]. For the same compound, the inhibition in vivo at 10 mg/kg in assay [3] is 100%.
With `N#Cc1ccc2c3c(n(C(=O)NCc4ccnc(Cl)c4)c2c1)CCN(C/C=C/c1cccc(F)c1F)C3` [Example 32, (E)-N-((2-chloropyridin-4-yl)methyl)-7-cyano-2-(3-(2,3-difluorophenyl)allyl)-1,2,3,4-tetrahydro-5H-pyrido[4,3-b]indole-5-carboxamide], the minimal effective concentration in assay [1] was found to be 1.8 µM; in assay [2], 18.2 µM. Also, in assay [3], the inhibition in vivo at 10 mg/kg came to 100%.
On to `N#Cc1ccc2c3c(n(C(=O)NCc4ccnc(Cl)c4)c2c1)CCN(C/C=C/c1c(F)cc(F)cc1F)C3` [Example 9, (E)-N-((2-chloropyridin-4-yl)methyl)-7-cyano-2-(3-(2,4,6-trifluorophenyl)allyl)-1,2,3,4-tetrahydro-5H-pyrido[4,3-b]indole-5-carboxamide], for which the minimal effective concentration in assay [1] was 7.6 µM; in assay [2] it was 5.7 µM. The inhibition in vivo at 10 mg/kg in assay [3] came to 99%.
For `O=C(NCc1ccnc(F)c1)n1c2c(c3ccc(C(F)(F)F)cc31)CN(C/C=C/c1ccc(Cl)cc1)CC2` [Example 165, (E)-2-(3-(4-chlorophenyl)allyl)-N-((2-fluoropyridin-4-yl)methyl)-7-(trifluoromethyl)-1,2,3,4-tetrahydro-5H-pyrido[4,3-b]indole-5-carboxamide] the same measures were 3.3 µM, 3.3 µM and 100%.
Take `O=C(NCc1ccnc(Cl)c1)n1c2c(c3cc(N4CCOCC4)ccc31)CN(C/C=C/c1ccc(Cl)c(F)c1)CC2` [Example 504, (E)-2-(3-(4-chloro-3-fluorophenyl)allyl)-N-((2-chloropyridin-4-yl)methyl)-8-morpholino-1,2,3,4-tetrahydro-5H-pyrido[4,3-b]indole-5-carboxamide]: the minimal effective concentration in assay [1] worked out at 5.7 µM; in assay [2] it was 10 µM. In addition, the inhibition in vivo at 10 mg/kg in assay [3] came out at 100%.
For `N#Cc1ccc2c3c(n(C(=O)NCc4ccnc(Cl)c4)c2c1)CCN(C/C=C/c1ccc(F)cc1)C3` [Example 36, (E)-N-((2-chloropyridin-4-yl)methyl)-7-cyano-2-(3-(4-fluorophenyl)allyl)-1,2,3,4-tetrahydro-5H-pyrido[4,3-b]indole-5-carboxamide] the same measures were 5.7 µM, 3.3 µM and 100%.
Consider `O=C(NCc1ccnc(F)c1)n1c2c(c3c(Cl)cccc31)CN(C/C=C/c1ccc(Cl)cc1)CC2` [Example 230, (E)-9-chloro-2-(3-(4-chlorophenyl)allyl)-N-((2-fluoropyridin-4-yl)methyl)-1,2,3,4-tetrahydro-5H-pyrido[4,3-b]indole-5-carboxamide], for which the minimal effective concentration came to 1.8 µM in assay [1] and 10 µM in assay [2]. Also, the inhibition in vivo at 10 mg/kg in assay [3] worked out at 100%.
For `O=C(NCc1ccnc(Cl)c1)n1c2c(c3cc(Cl)c(Cl)cc31)CN(C/C=C/c1ccc(F)cc1)CC2` [Example 282, (E)-7,8-dichloro-N-((2-chloropyridin-4-yl)methyl)-2-(3-(4-fluorophenyl)allyl)-1,2,3,4-tetrahydro-5H-pyrido[4,3-b]indole-5-carboxamide] the same measures were 0.3 µM, 3.3 µM and 100%.
As for `O=C(NCc1ccnc(F)c1)n1c2c(c3ccc(Cl)cc31)CN(C/C=C/c1ccc(Cl)cc1)CC2` [Example 229, (E)-7-chloro-2-(3-(4-chlorophenyl)allyl)-N-((2-fluoropyridin-4-yl)methyl)-1,2,3,4-tetrahydro-5H-pyrido[4,3-b]indole-5-carboxamide], the minimal effective concentration in assay [1] stood at 3.3 µM; in assay [2], 10 µM. For the same compound, the inhibition in vivo at 10 mg/kg in assay [3] is 100%.
As for `N#Cc1ccc2c3c(n(C(=O)NCc4ccnc(Cl)c4)c2c1)CCN(C/C=C/c1cc(F)c(Cl)c(F)c1)C3` [Example 1, (E)-2-(3-(4-chloro-3,5-difluorophenyl)allyl)-N-((2-chloropyridin-4-yl)methyl)-7-cyano-1,2,3,4-tetrahydro-5H-pyrido[4,3-b]indole-5-carboxamide], the minimal effective concentration in assay [1] and in assay [2] was 0.2 µM throughout. Further, the inhibition in vivo at 10 mg/kg in assay [3] was determined as 100%.
Take `O=C(NCc1ccnc(Cl)c1)n1c2c(c3c(Br)cccc31)CN(C/C=C/c1ccc(Cl)cc1)CC2` [Example 444, (E)-9-bromo-2-(3-(4-chlorophenyl)allyl)-N-((2-chloropyridin-4-yl)methyl)-1,2,3,4-tetrahydro-5H-pyrido[4,3-b]indole-5-carboxamide]: the minimal effective concentration in assay [1] is 0.7 µM; in assay [2], 2.4 µM. In assay [3], the inhibition in vivo at 10 mg/kg was 100%.
With `N#Cc1cc(/C=C/CN2CCc3c(c4ccc(OC(F)(F)F)cc4n3C(=O)NCc3ccnc(Cl)c3)C2)ccc1F` [Example 344, (E)-N-((2-chloropyridin-4-yl)methyl)-2-(3-(3-cyano-4-fluorophenyl)allyl)-7-(trifluoromethoxy)-1,2,3,4-tetrahydro-5H-pyrido[4,3-b]indole-5-carboxamide], the minimal effective concentration was determined as 0.5 µM in assay [1] and 10 µM in assay [2]. Further, the inhibition in vivo at 10 mg/kg in assay [3] was determined as 100%.
For `O=C(NCc1cnc(Cl)s1)n1c2c(c3cc4c(cc31)COC4)CN(C/C=C/c1ccc(Cl)cc1)CC2` [Example 489, (E)-8-(3-(4-chlorophenyl)allyl)-N-((2-chlorothiazol-5-yl)methyl)-1,3,6,7,8,9-hexahydro-5H-furo[3,4-f]pyrido[4,3-b]indole-5-carboxamide], in that order: 3.3 µM, 3.3 µM and 100%.
For the compound `O=C(NCc1ccnc(Cl)c1)n1c2c(c3cc(Br)ccc31)CN(C/C=C/c1ccc(Cl)cc1)CC2` [Example 185, (E)-8-bromo-2-(3-(4-chlorophenyl)allyl)-N-((2-chloropyridin-4-yl)methyl)-1,2,3,4-tetrahydro-5H-pyrido[4,3-b]indole-5-carboxamide], the minimal effective concentration in assay [1] is 0.7 µM; in assay [2], 7.7 µM. For the same compound, the inhibition in vivo at 10 mg/kg in assay [3] amounted to 100%.
Regarding `N#Cc1ccc2c3c(n(C(=O)NCc4ccnc(Br)c4)c2c1)CCN(C/C=C/c1ccc(Cl)c(F)c1)C3` [Example 41, (E)-N-((2-bromopyridin-4-yl)methyl)-2-(3-(4-chloro-3-fluorophenyl)allyl)-7-cyano-1,2,3,4-tetrahydro-5H-pyrido[4,3-b]indole-5-carboxamide], the minimal effective concentration in assay [1] is 0.3 µM; in assay [2], 5.7 µM. Moreover, the inhibition in vivo at 10 mg/kg in assay [3] was determined as 100%.
For `O=C(NCc1ccnc(Cl)c1)n1c2c(c3cc(Cl)ccc31)CN(C/C=C/c1ccc(F)c(Cl)c1)CC2` [Example 239, (E)-8-chloro-2-(3-(3-chloro-4-fluorophenyl)allyl)-N-((2-chloropyridin-4-yl)methyl)-1,2,3,4-tetrahydro-5H-pyrido[4,3-b]indole-5-carboxamide], the minimal effective concentration in assay [1] came out at 0.3 µM; in assay [2], 3.3 µM. Further, the inhibition in vivo at 10 mg/kg in assay [3] was 98%.
`O=C(NCc1ccnc(Cl)c1)n1c2c(c3ccc(C(F)(F)F)cc31)CN(C/C=C/c1ccc(Cl)c(F)c1)CC2` [Example 152, (E)-2-(3-(4-chloro-3-fluorophenyl)allyl)-N-((2-chloropyridin-4-yl)methyl)-7-(trifluoromethyl)-1,2,3,4-tetrahydro-5H-pyrido[4,3-b]indole-5-carboxamide]: the figures for the minimal effective concentration in assay [1] and in assay [2] were 1 µM and 3.3 µM, respectively. For the same compound, in assay [3], the inhibition in vivo at 10 mg/kg was determined as 99%.
With `O=C(NCc1ccnc(Cl)c1)n1c2c(c3ccc(OC(F)(F)F)cc31)CN(C/C=C/c1ccc(F)c(F)c1)CC2` [Example 349, (E)-N-((2-chloropyridin-4-yl)methyl)-2-(3-(3,4-difluorophenyl)allyl)-7-(trifluoromethoxy)-1,2,3,4-tetrahydro-5H-pyrido[4,3-b]indole-5-carboxamide], the minimal effective concentration came to 1 µM in assay [1] and 10 µM in assay [2]. For the same compound, the inhibition in vivo at 10 mg/kg in assay [3] came out at 99%.
Take `O=C(NCc1ccnc(F)c1)n1c2c(c3cc(F)c(Cl)cc31)CN(C/C=C/c1ccc(F)c(F)c1)CC2` [Example 314, (E)-7-chloro-2-(3-(3,4-difluorophenyl)allyl)-8-fluoro-N-((2-fluoropyridin-4-yl)methyl)-1,2,3,4-tetrahydro-5H-pyrido[4,3-b]indole-5-carboxamide]: the figures for the minimal effective concentration in assay [1] and in assay [2] were 1 µM and 3.3 µM, respectively. For the same compound, the inhibition in vivo at 10 mg/kg in assay [3] worked out at 100%.
As to `O=C(NCc1ccnc(Cl)c1)n1c2c(c3cc(Cl)ccc31)CN(C/C=C/c1ccc(F)cc1F)CC2` [Example 238, (E)-8-chloro-N-((2-chloropyridin-4-yl)methyl)-2-(3-(2,4-difluorophenyl)allyl)-1,2,3,4-tetrahydro-5H-pyrido[4,3-b]indole-5-carboxamide], the minimal effective concentration in assay [1] is 1 µM; in assay [2] it was 5.7 µM. Further, in assay [3], the inhibition in vivo at 10 mg/kg came out at 100%.
`O=C(NCc1ccnc(F)c1)n1c2c(c3cc(F)c(Cl)cc31)CN(C/C=C/c1ccc(Cl)cc1)CC2` [Example 317, (E)-7-chloro-2-(3-(4-chlorophenyl)allyl)-8-fluoro-N-((2-fluoropyridin-4-yl)methyl)-1,2,3,4-tetrahydro-5H-pyrido[4,3-b]indole-5-carboxamide]: the values for the minimal effective concentration in assay [1] and in assay [2] were 1 µM and 18.2 µM, respectively. Further, the inhibition in vivo at 10 mg/kg in assay [3] was found to be 100%.
